Results: ChEMBL document CHEMBL5236635, “Structure-Based Drug Design and Synthesis of Novel N-Aryl-2,4-bithiazole-2-amine CYP1B1-Selective Inhibitors in Overcoming Taxol Resistance in A549 Cells” (J Med Chem, 2022)
Active and inactive are the calls of the source.

How the values were obtained:
Format in all cases: functional, cell-based
A549 [1] = assay: Inhibition of DMBA-induced CYP1B1 expression level in human A549 cells at 5 uM incubated for 24 hrs
A549 [2] = assay: Inhibition of DMBA-induced CYP1B1 overexpression in human A549 cells assessed as increase in FAK level incubated for 24 hrs by densitometry analysis; settings: dose 5.0 µM
NCI-H460 = assay: Inhibition of DMBA-induced CYP1B1 overexpression in human NCI-H460 cells assessed as increase in snail level incubated for 24 hrs by densitometry analysis; settings: dose 5.0 µM

Measured: inhibition

COc1cc(/C=C/c2ccc(OC)cc2OC)cc(OC)c1
active: A549 [1] | A549 [2] Dose-Dependent Effect | NCI-H460 Dose-Dependent Effect
